The results in this text go back to US9999622B2, “Pyrazolothiazole compound and medicine comprising same” (NIPPON SHINYAKU CO., LTD., priority 2014, dated 2018).

Common to all, as to assay type: biochemical
One assay has as its target T1, JAK1 (Homo sapiens, UniProt P23458).
T1 construct: purchased Carna Biosciences, Inc
As to the kind of experiment: JAK tyrosine kinase inhibitory activity in the presence of 1 mM ATP (ELISA), JAK1. Here is the method:
(§1) 1. Preparation of Test Compound
(§2) The test compound was dissolved in dimethyl sulfoxide (DMSO) to 10 mM and further diluted with DMSO to the concentrations of 1000, 100, 10, 1, 0.1 and 0.01 μM, respectively. For JAK1, these solutions of the test compound at the six concentrations 10 mM, 1000 μM, 100 μM, 10 μM, 1 μM and 0.1 μM were used. For JAK2 and JAK3, these solutions of the test compound at the six concentrations 1000 μM, 100 μM, 10 μM, 1 μM, 0.1 μM and 0.01 μM were used. The test compound solutions were diluted further to 20-fold with an assay buffer to obtain a sample solution. 15 mM Tris-HCl (pH7.5), 0.01 (v/v) % Tween-20 and 1 mM dithiothreitol were used as an assay buffer. DMSO was diluted to 20-fold with the assay buffer and was used as a negative control.
(§3) 2. JAK Tyrosine Kinase Inhibitory Activity in the Presence of 1 mM Atp
(§4) The activity was determined by ELISA method. Each of the sample solutions was added to a streptavidine coated 96-well plate (DELFIA Strip Plate 8×12 well, PerkinElmer) at 10 μL/well (n=2). […] Finally, JAK tyrosine kinase (Carna Biosciences, Inc.), which was previously diluted with the assay buffer to 7.5 nM for JAK1 and 0.75 nM for JAK2 and JAK3, was added to the plate at 20 μL/well, and the plate was incubated at 30° C. for 1 h. The plate was washed four times with buffer (50 mM Tris-HCl (pH 7.5), 150 mM NaCl, 0.02 (v/v) % Tween-20). A blocking buffer (0.1% Bovine Serum Albumin, 50 mM Tris-HCl (pH 7.5), 150 mM NaCl, 0.02 (v/v) % Tween-20) was added to the plate at 150 μL/well and the plate was blocked at 30° C. for 1 h. The blocking buffer was removed, and a horse radish peroxidase-labeled anti-phosphorylated tyrosine antibody (BD Biosciences, Inc.) (diluted to 10000-fold with the blocking buffer) was added to the plate at 100 μL/well, and the plate was incubated at 30° C. for 30 min. The plate was washed with the washing buffer four times, and 3,3′,5,5′-tetramethylbenizidine solution (Nacalai Tesque) was added to the plate at 100 μL/well to develop the color for 10 minutes. To the plate was added 0.1 M sulfuric acid at 100 μL/well to stop the reaction. The absorbance at 450 nm was measured using a microplate reader (BIO-RAD).
(§5) 3. Analysis of the Results

Another assay addresses T2, JAK2 (Homo sapiens, UniProt O60674).
T2 construct: purchased Carna Biosciences, Inc
As to the kind of experiment: JAK tyrosine kinase inhibitory activity in the presence of 1 mM ATP (ELISA), JAK2. Here is the method: as §1, §2, §3, §4, §5

Another assay has as its target T3, JAK3 (Homo sapiens, UniProt P52333).
T3 construct: purchased Carna Biosciences, Inc
T3 sequence (P52333 1-1124): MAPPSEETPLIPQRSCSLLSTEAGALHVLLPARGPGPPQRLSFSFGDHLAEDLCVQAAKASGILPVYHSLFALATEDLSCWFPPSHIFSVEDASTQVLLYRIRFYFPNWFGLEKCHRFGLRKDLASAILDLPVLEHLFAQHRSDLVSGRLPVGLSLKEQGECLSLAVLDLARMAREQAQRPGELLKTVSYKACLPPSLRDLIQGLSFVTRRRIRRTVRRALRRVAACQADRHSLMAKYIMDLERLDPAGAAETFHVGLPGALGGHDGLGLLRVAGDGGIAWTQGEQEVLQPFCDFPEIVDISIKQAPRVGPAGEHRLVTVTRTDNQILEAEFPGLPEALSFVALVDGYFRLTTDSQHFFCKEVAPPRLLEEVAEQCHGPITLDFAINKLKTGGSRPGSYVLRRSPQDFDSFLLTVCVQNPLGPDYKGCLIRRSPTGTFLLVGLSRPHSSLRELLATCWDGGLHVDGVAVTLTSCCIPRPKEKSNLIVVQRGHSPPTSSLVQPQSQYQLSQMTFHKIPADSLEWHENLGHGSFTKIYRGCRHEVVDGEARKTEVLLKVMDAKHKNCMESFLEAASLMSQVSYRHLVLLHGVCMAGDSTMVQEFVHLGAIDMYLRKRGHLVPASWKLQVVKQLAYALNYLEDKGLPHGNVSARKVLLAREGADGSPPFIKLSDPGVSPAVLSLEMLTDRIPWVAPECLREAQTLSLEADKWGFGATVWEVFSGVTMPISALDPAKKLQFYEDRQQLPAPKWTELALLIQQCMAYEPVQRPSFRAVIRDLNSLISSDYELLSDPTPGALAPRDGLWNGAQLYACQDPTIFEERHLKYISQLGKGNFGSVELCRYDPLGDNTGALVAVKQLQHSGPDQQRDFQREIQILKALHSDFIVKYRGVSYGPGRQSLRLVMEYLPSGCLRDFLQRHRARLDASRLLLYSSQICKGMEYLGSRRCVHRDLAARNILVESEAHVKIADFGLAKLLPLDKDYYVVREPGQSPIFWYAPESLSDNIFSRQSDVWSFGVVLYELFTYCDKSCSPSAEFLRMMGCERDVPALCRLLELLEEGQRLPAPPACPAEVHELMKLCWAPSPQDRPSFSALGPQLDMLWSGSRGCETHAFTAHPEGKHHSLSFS
Kind of assay: JAK tyrosine kinase inhibitory activity in the presence of 1 mM ATP (ELISA), JAK3. The procedure:
as §1, §2, §3, §4, §5

Counter-ions that a name gives are not always drawn.

T2 sequence (O60674 whole entry): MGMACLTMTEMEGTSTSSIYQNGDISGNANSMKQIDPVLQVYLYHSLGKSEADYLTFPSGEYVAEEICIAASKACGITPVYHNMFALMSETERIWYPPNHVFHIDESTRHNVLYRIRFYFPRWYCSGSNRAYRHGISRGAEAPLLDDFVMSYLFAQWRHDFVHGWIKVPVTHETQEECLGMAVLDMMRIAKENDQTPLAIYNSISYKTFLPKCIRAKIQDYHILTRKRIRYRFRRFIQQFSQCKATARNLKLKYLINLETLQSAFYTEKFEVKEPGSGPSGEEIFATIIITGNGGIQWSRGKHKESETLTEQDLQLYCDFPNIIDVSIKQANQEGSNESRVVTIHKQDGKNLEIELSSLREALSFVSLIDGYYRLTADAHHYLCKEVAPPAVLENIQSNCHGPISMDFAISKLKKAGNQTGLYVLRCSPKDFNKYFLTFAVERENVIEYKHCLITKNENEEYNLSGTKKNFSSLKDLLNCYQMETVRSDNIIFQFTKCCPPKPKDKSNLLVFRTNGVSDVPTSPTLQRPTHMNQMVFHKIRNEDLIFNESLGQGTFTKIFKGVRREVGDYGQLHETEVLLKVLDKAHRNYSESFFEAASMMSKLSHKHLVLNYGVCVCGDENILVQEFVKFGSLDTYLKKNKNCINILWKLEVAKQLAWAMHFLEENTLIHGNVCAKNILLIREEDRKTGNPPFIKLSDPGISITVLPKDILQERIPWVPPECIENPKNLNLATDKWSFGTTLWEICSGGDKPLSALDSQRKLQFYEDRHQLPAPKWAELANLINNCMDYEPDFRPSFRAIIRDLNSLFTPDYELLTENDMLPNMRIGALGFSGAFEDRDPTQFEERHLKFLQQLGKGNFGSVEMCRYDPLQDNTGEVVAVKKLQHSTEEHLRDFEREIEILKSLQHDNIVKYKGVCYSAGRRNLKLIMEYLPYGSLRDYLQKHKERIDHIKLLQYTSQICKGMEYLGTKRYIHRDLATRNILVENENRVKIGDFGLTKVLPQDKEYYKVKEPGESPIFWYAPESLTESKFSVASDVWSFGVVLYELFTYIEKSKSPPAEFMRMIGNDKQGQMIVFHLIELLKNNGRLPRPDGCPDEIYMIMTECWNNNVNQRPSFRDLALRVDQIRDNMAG
T1 sequence (P23458 whole entry): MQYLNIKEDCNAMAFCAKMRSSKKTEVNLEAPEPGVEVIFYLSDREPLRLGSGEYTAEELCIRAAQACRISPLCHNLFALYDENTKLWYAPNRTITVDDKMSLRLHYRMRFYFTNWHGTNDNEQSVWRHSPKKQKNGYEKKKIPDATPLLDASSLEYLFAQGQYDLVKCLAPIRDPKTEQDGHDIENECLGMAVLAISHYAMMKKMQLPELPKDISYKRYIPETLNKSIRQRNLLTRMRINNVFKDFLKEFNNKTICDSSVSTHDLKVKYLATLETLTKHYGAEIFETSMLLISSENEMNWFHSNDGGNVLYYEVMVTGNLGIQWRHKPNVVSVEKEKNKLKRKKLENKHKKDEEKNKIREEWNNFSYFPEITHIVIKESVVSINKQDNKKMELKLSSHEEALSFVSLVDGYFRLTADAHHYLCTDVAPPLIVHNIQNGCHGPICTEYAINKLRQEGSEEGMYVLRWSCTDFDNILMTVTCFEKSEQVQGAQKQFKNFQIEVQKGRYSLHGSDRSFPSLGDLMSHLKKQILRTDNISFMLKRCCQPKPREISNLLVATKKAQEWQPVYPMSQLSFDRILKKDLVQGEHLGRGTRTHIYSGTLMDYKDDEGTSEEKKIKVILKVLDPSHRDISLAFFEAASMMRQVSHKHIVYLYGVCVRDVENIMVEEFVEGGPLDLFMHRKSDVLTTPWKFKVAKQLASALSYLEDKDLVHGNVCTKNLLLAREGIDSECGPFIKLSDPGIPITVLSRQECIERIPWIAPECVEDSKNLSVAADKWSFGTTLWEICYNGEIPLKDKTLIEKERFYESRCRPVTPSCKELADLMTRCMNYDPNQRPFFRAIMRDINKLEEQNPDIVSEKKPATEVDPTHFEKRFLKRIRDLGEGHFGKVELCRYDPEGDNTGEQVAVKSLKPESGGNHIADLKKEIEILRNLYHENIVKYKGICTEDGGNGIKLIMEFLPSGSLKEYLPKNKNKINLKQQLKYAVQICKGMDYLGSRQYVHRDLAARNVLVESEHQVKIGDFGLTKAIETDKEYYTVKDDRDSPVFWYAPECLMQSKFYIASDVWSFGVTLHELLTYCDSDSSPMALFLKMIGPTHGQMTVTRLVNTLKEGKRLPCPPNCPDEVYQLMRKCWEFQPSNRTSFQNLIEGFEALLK

Consider `COCCOC(=O)NC1CCN(C(=O)c2cc(N[C@H](C)C(C)(C)C)nc(-c3cnn4ccsc34)n2)CC1` [Example 90, 2-Methoxyethyl (1-{[6-{[(2R)-3,3-dimethylbutan-2-yl]amino}-2-(pyrazolo[5,1-b][1,3]thiazol-7-yl)pyrimidin-4-yl]carbonyl}piperidin-4-yl)carbamate], for which the half-maximal inhibitory concentration (IC50) on JAK1 stood at 620 nM; at JAK2, 1200 nM; on JAK3, 1800 nM.

On to `COC(=O)NC1CCN(C(=O)c2cc(N[C@H]3CC[C@H](O)CC3)nc(-c3cnn4ccsc34)n2)CC1` [Example 178, Methyl (1-6-[(trans-4-hydroxycyclohexyl)amino]-2-(pyrazolo[5,1-b][1,3]thiazol-7-yl)pyrimidine-4-carbonylpiperidin-4-yl)carbamate], for which the IC50 on JAK1 was 510 nM; on JAK2, more than 10000 nM; on JAK3, 9500 nM.

On to `COc1ccc([C@@H](C)Nc2cc(C(=O)N3CCC(NC(=O)C4CC4)CC3)nc(-c3cnn4ccsc34)n2)cc1` [Example 52, N-(1-{[6-{[(1R)-1-(4-Methoxyphenyl)ethyl]amino}-2-(pyrazolo[5,1-b][1,3]thiazol-7-yl)pyrimidin-4-yl]carbonyl}piperidin-4-yl)cyclopropanecarboxamide], for which the IC50 is 180 nM on JAK1, 9300 nM on JAK2 and more than 10000 nM on JAK3.

In the case of `COC(=O)NC1CCN(C(=O)c2cc(OC(C)C(C)(C)C)nc(-c3cnn4ccsc34)n2)CC1` (stereo not drawn) [Example 64, Methyl [1-({6-[(3,3-dimethylbutan-2-yl)oxy]-2-(pyrazolo[5,1-b][1,3]thiazol-7-yl)pyrimidin-4-yl}carbonyl)piperidin-4-yl]carbamate], the values for the IC50 at JAK1, on JAK2 and at JAK3 were 260 nM, 3100 nM and more than 10000 nM, respectively.

Take `COC(=O)NC1CCN(C(=O)c2cc(N(C)C(C)(C)C)nc(-c3cnn4ccsc34)n2)CC1` [Example 132, Methyl [1-({6-[tert-butyl(methyl)amino]-2-(pyrazolo[5,1-b][1,3]thiazol-7-yl)pyrimidin-4-yl}carbonyl)piperidin-4-yl]carbamate hydrochloride]: the values for the IC50 on JAK1, on JAK2 and on JAK3 were 790 nM, more than 10000 nM and more than 10000 nM, respectively.

Regarding `C[C@H](Nc1cc(C(=O)N2CCC(NC(=O)OCC(F)F)CC2)nc(-c2cnn3ccsc23)n1)C(C)(C)C` [Example 99, 2,2-Difluoroethyl (1-{[6 {[(2S) 3,3-dimethylbutan-2-yl]amino}-2-(pyrazolo[5,1-b][1,3]thiazol-7-yl)pyrimidin-4-yl]carbonyl}piperidin-4-yl)carbamate], the IC50 turned out to be 19 nM on JAK1, 790 nM on JAK2 and 2600 nM on JAK3.

Take `COC(=O)NC1CCN(C(=O)c2cc(NC(C)c3ccncc3)nc(-c3cnn4ccsc34)n2)CC1` (stereo not drawn) [Example 162, Methyl 1-[2-(pyrazolo[5,1 b][1,3]thiazol-7-yl)-6-[1-(pyridin-4-yl)ethyl]aminopyrimidine-4-carbonyl]piperidin-4-ylcarbamate]: the IC50 was 1100 nM at JAK1, more than 10000 nM on JAK2 and more than 10000 nM at JAK3.

As to `COC(=O)N1CCC(Nc2cc(C(=O)N3CCC(NC(=O)C4CC4)CC3)nc(-c3cnn4ccsc34)n2)CC1` [Example 194, Methyl 4-[6-4-[(cyclopropanecarbonyl)amino]piperidine-1-carbonyl-2-(pyrazolo[5,1-b][1,3]thiazol-7-yl)pyrimidin-4-yl]aminopiperidine-1-carboxylate], the IC50 at JAK1 is 260 nM; at JAK2, more than 10000 nM; at JAK3 it was more than 10000 nM.

`CC(=O)N1CCC(Nc2cc(C(=O)N3CCC(NC(=O)C4CC4)CC3)nc(-c3cnn4ccsc34)n2)CC1` [Example 188, N-(1-6-[(l-acetylpiperidin-4-yl)amino]-2-(pyrazolo[5,1-b][1,3]thiazol-7-yl)pyrimidine-4-carbonylpiperidin-4-yl)cyclopropanecarboxamide]: the IC50 at JAK1 was 1300 nM; on JAK2, more than 10000 nM; on JAK3, more than 10000 nM.

In the case of `CCCCCCC(=O)NC1CCN(C(=O)c2cc(N[C@H](C)C(C)(C)C)nc(-c3cnn4ccsc34)n2)CC1` [Example 195, N-1-[6-[(2R)-3,3-dimethylbutan-2-yl]amino-2-(pyrazolo[5,1-b][1,3]thiazol-7-yl)pyrimidine-4-carbonyl]piperidin-4-ylheptanamide], the IC50 came out at 310 nM at JAK1, 9000 nM at JAK2 and 4900 nM on JAK3.

With `CC(C)OC(=O)NC1CCN(C(=O)c2cc(NC(C)(C)C)nc(-c3cnn4ccsc34)n2)CC1` [Example 60, Propan-2-yl (1-{[6-(tert-butylamino)-2-(pyrazolo[5,1-b][1,3]thiazol-7-yl)pyrimidin-4-yl]carbonyl}piperidin-4-yl)carbamate], the values for the IC50 at JAK1, on JAK2 and on JAK3 were 72 nM, 5400 nM and 6100 nM, respectively.

Turning to `COc1ccccc1C(=O)NC1CCN(C(=O)c2cc(N[C@@H](C)C3CC3)nc(-c3cnn4ccsc34)n2)CC1` [Example 186, N-1-[6-[(1S)-1-cyclopropylethyl]amino-2-(pyrazolo[5,1-b][1,3]thiazol-7-yl)pyrimidine-4-carbonyl]piperidin-4-yl-2-methoxybenzamide], the concentration for half-maximal inhibition (IC50) at JAK1 was 81 nM; on JAK2, more than 10000 nM; on JAK3, 580 nM.

For `C[C@@H](Nc1cc(C(=O)N2CCC(NC(=O)C3CC3)CC2)nc(-c2cnn3ccsc23)n1)C1CC1` [Example 46, N-(1-{[6-{[(1R)-1-Cyclopropylethyl]amino}-2-(pyrazolo[5,1-b][1,3]thiazol-7-yl)pyrimidin-4-yl]carbonyl}piperidin-4-yl)cyclopropanecarboxamide], the IC50 on JAK1 was found to be 170 nM; at JAK2, 1600 nM; on JAK3 it was 7200 nM.

As to `C[C@@H](COC(F)F)Nc1cc(C(=O)N2CCC(NC(=O)C3CC3)CC2)nc(-c2cnn3ccsc23)n1` [Example 17, N-(1-{[6-{[(2S)-1-(Difluoromethoxy)propan-2-yl]amino}-2-(pyrazolo[5,1-b][1,3]thiazol-7-yl)pyrimidin-4-yl]carbonyl}piperidin-4-yl)cyclopropanecarboxamide], the IC50 at JAK1 amounted to 230 nM; at JAK2, 5100 nM; on JAK3, 5800 nM.

In the case of `CC(Oc1cc(C(=O)N2CCC(NC(=O)C3CC3)CC2)nc(-c2cnn3ccsc23)n1)C(C)(C)C` (stereo not drawn) [Example 44, N-[1-({6-[(3,3-Dimethylbutan 2 yl)oxy]-2-(pyrazolo[5,1-b][1,3]thiazol-7-yl)pyrimidin-4-yl}carbonyl)piperidin-4-yl]cyclopropanecarboxamide], the IC50 at JAK1 was 66 nM; at JAK2 it was 1300 nM; at JAK3, more than 10000 nM.
